What is called IC50 is the point on the concentration scale where inhibition reaches its midpoint.

The source of these data is US10954214B2 (Janssen Pharmaceutica NV, priority 2016, dated 2021).

For assay [1], the system named is IL10 secretion by OCI-LY3 ABC-DLBCL cells. The experiment in a line: Human IL10 Mesoscale assay (OCI-LY3). The class given is cell-based. The settings on record: Homo sapiens, 24 h. The protocol: (§1) NFKB signaling regulates the secretion of multiple cytokines, including IL6 and IL10. Secretion of the cytokines IL6 and IL10 by TMD8 or OCI-LY3 ABC-DLBCL cells was measured using a mesoscale assay. Inhibition of NFKB signaling by MALT1 or BTK inhibitors results in a decrease of IL6/10 secretion.
(§2) TMD8 or OCI-LY3 cells were propagated in RPMI-1640 (Sigma Aldrich) supplemented with 10% fetal bovine serum (HyClone), 1 mM sodium pyruvate (Invitrogen), 2 mM L-glutamine (Sigma Aldrich) and 1% PenStrep (Sigma Aldrich). Cell passage number should not exceed 30. Cells should be kept between 0.5-2.5 million cells per mL during culturing and cells should be supplemented every 2-3 days with fresh 50 μM beta-mercaptoenthanol. No beta-mercaptoethanol was used during the mesoscale assay.
(§3) For the Mesoscale assay, 100,000 TMD8 or OCI-LY3 cells were seeded per well into black-colored 96-well plates with clear bottom (Corning #3904) and test compounds were added in 9 dilution steps (1:2) ranging from 15 μM to 58.6 nM (final DMSO concentration 0.3%). DMSO control wells were used to determine the maximum signal (High Control (HC)). Treatment with the BTK inhibitor RN486 in a dose range from 30 nM to 131 pM (9 dilutions of 1:2) served as a positive control for NFKB pathway inhibition and was used to determine the maximum inhibition (Low Control (LC)). Compounds and cells were incubated for 24 h at 37° C. and 5% CO2 (assay volume is 150 μL). After 24 h of incubation 50 μL of the supernatant was transferred to a MSD plate (V-Plex Proinflammation Panel 1 (human) kit, Mesoscale (MSD)) and incubated for 2 h with vigorous shaking (600 rpm) at room temperature. Following incubation, plates were washed 3× with PBS+0.05% Tween-20 and 25 μL detection antibody solution (IL6 & IL10 antibodies in diluent 3 (MSD)) was added per well followed by 2 h of incubation with vigorous shaking (600 rpm) at room temperature. After 3× washes with PBS+0.05% Tween-20, plates were incubated with 150 μL 2× Read Buffer T and read on SECTOR imager.

Assay [2] addresses full-length MALT1 protein (Strep-MALT1(1-824)-His) (Homo sapiens (Human), UniProt Q9UDY8). The assay is described as follows: MALT1 Biochemical Protease Assay (Ac-LRSR-AMC substrate). As to conditions: 10 nM FL MALT1, 200 μM Ac-LRSR-AMC, 4 h at RT; read-out: MALT1_Biochemical activity (Ac-LRSR-amc) IC50. In short, it runs like this: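 Full-length MALT1 pre-incubated with compounds (30 μM to 0.5 nM, 11 threefold steps) for 50 min at RT. After Ac-LRSR-AMC was added, the reaction ran 4 h at RT and AMC fluorescence was read. IC50 and Hill slope from curve fitting against no-enzyme and no-compound controls.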

Assay [3] relates to IL6 secretion by OCI-LY3 ABC-DLBCL cells. The assay is described as follows: Human IL6 Mesoscale assay (OCI-LY3). In kind it is cell-based. As to conditions: Homo sapiens, 24 h. Here is the method:
as §1, §2, §3

full-length MALT1 protein (Strep-MALT1(1-824)-His), sequence (Q9UDY8 whole entry): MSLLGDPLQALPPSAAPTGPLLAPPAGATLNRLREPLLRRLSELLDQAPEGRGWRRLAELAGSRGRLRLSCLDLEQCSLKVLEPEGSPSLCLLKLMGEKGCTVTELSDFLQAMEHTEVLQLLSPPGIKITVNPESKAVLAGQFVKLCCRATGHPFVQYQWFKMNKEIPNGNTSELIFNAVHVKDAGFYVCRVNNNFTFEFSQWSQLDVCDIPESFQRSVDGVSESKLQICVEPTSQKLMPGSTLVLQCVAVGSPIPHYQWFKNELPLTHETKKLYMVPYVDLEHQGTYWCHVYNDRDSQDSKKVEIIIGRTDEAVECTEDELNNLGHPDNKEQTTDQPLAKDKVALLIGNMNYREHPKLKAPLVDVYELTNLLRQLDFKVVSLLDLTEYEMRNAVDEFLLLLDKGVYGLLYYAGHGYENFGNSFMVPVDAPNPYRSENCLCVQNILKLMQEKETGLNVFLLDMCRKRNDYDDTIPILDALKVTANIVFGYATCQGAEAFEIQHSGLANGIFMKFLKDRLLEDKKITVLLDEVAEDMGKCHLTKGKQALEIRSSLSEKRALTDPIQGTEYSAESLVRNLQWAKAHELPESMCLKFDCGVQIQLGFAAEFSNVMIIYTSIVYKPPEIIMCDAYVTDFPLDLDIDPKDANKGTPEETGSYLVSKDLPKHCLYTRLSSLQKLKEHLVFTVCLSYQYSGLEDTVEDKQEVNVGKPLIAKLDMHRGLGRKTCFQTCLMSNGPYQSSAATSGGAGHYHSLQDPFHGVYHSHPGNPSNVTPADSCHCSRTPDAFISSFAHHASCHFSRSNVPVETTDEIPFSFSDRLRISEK

Consider `CCc1cc(NC(=O)c2cnn(-c3cccc4nccn34)c2C(F)(F)F)c(CC)nc1-n1nccn1` [Cpd 196, N-(2,5-diethyl-6-(2H-1,2,3-triazol-2-yl)pyridin-3-yl)-1-(imidazo[1,2-a]pyridin-5-yl)-5-(trifluoromethyl)-1H-pyrazole-4-carboxamide], for which the IC50 in assay [1] was 41 nM; in assay [2], 3160 nM; in assay [3], 83 nM.
For `Cc1ccc(-n2ncc(C(=O)Nc3ccnc(C(F)(F)F)c3)c2C(F)(F)F)c2ccnn12` [Cpd 207, 1-(7-methylpyrazolo[1,5-a]pyridin-4-yl)-5-(trifluoromethyl)-N-(2-(trifluoromethyl)pyridin-4-yl)-1H-pyrazole-4-carboxamide], in that order: 513 nM, 331 nM and 525 nM.
The like results for `O=C(Nc1ccnc(C(F)(F)F)c1)c1cnn(-c2cnc(N3CC(O)C3)c3sccc23)c1C(F)(F)F` [Cpd 210, 1-(7-(3-hydroxyazetidin-1-yl)thieno[2,3-c]pyridin-4-yl)-5-(trifluoromethyl)-N-(2-(trifluoromethyl)pyridin-4-yl)-1H-pyrazole-4-carboxamide] were, in that order, 380 nM, 72 nM and 417 nM.
For `Cc1nc2c(-n3ncc(C(=O)Nc4cnc(-n5nccn5)c(C#N)c4)c3C(F)(F)F)cccc2o1` [Cpd 219, N-(5-cyano-6-(2H-1,2,3-triazol-2-yl)pyridin-3-yl)-1-(2-methylbenzo[d]oxazol-4-yl)-5-(trifluoromethyl)-1H-pyrazole-4-carboxamide], in that order: 126 nM, 2690 nM and 102 nM.
For `Cc1cc2nccc(-n3ncc(C(=O)Nc4cnc(-n5nccn5)c(C#N)c4)c3C(F)(F)F)c2s1` [Cpd 232, N-(5-cyano-6-(2H-1,2,3-triazol-2-yl)pyridin-3-yl)-1-(2-methylthieno[3,2-b]pyridin-7-yl)-5-(trifluoromethyl)-1H-pyrazole-4-carboxamide], the results for the IC50 in assay [1], in assay [2] and in assay [3] were 182 nM, 891 nM and 145 nM, respectively.
For `O=C(Nc1cnc(-n2nccn2)c(Cl)c1)c1cnn(-c2cccc3cncn23)c1C(F)(F)F` [Cpd 233, N-(5-chloro-6-(2H-1,2,3-triazol-2-yl)pyridin-3-yl)-1-(imidazo[1,5-a]pyridin-5-yl)-5-(trifluoromethyl)-1H-pyrazole-4-carboxamide], in that order: 240 nM, 871 nM and 331 nM.
With `O=C(Nc1cnc(-n2nccn2)c(Cl)c1)c1cnn(-c2ccc3nccn3n2)c1C(F)(F)F` [Cpd 242, N-(5-chloro-6-(2H-1,2,3-triazol-2-yl)pyridin-3-yl)-1-(imidazo[1,2-b]pyridazin-6-yl)-5-(trifluoromethyl)-1H-pyrazole-4-carboxamide], the IC50 came out at 54 nM in assay [1], 437 nM in assay [2] and 65 nM in assay [3].
As to `NC(=O)c1cn(-c2ncc(NC(=O)c3cnn(-c4cccc5ncccc45)c3C(F)(F)F)cc2Cl)nn1` [Cpd 246, 1-(3-chloro-5-(1-(quinolin-5-yl)-5-(trifluoromethyl)-1H-pyrazole-4-carboxamido)pyridin-2-yl)-1H-1,2,3-triazole-4-carboxamide], the figures for the IC50 in assay [1], in assay [2] and in assay [3] were 63 nM, 380 nM and 135 nM, respectively.
The like results for `N#Cc1cc(NC(=O)c2cnn(-c3ccnc4nccn34)c2C(F)(F)F)cnc1-n1nccn1` [Cpd 250, N-(5-cyano-6-(2H-1,2,3-triazol-2-yl)pyridin-3-yl)-1-(imidazo[1,2-a]pyrimidin-5-yl)-5-(trifluoromethyl)-1H-pyrazole-4-carboxamide] were, in that order, 407 nM, 316 nM and 269 nM.
The like results for `COc1cc(NC(=O)c2cnn(-c3cccc4ncccc34)c2C(F)(F)F)cnc1-n1nccn1` [Cpd 251, N-(5-methoxy-6-(2H-1,2,3-triazol-2-yl)pyridin-3-yl)-1-(quinolin-5-yl)-5-(trifluoromethyl)-1H-pyrazole-4-carboxamide] were, in that order, 2240 nM, 302 nM and 2190 nM.
The like results for `Cc1nc(-n2nccn2)c(Cl)cc1NC(=O)c1cnn(-c2cccc3scnc23)c1C(F)(F)F` [Cpd 252, 1-(benzo[d]thiazol-4-yl)-N-(5-chloro-2-methyl-6-(2H-1,2,3-triazol-2-yl)pyridin-3-yl)-5-(trifluoromethyl)-1H-pyrazole-4-carboxamide] were, in that order, 123 nM, 282 nM and 158 nM.
Consider `COCc1cnnn1-c1ncc(NC(=O)c2cnn(-c3cccc4ncccc34)c2C(F)(F)F)cc1Cl` [Cpd 253, N-(5-chloro-6-(5-(methoxymethyl)-1H-1,2,3-triazol-1-yl)pyridin-3-yl)-1-(quinolin-5-yl)-5-(trifluoromethyl)-1H-pyrazole-4-carboxamide], for which the IC50 in assay [1] was 12600 nM; in assay [2] it was 282 nM; in assay [3], over 15100 nM.
The like results for `Cc1nc2cccc(-n3ncc(C(=O)Nc4cnc(-n5nccn5)c(C#N)c4)c3C(F)(F)F)n2n1` [Cpd 254, N-(5-cyano-6-(2H-1,2,3-triazol-2-yl)pyridin-3-yl)-1-(2-methyl-[1,2,4]triazolo[1,5-a]pyridin-5-yl)-5-(trifluoromethyl)-1H-pyrazole-4-carboxamide] were, in that order, 79 nM, 282 nM and 81 nM.
For `Cn1nc(-c2ncc(NC(=O)c3cnn(-c4cccc5ncccc45)c3C(F)(F)F)cc2C#N)cc1C(=O)O` [Cpd 255, 3-(3-cyano-5-(1-(quinolin-5-yl)-5-(trifluoromethyl)-1H-pyrazole-4-carboxamido)pyridin-2-yl)-1-methyl-1H-pyrazole-5-carboxylic acid], in that order: 41 nM, 275 nM and 59 nM.
For `COC(=O)c1cnn(-c2ccc(NC(=O)c3cnn(-c4cccc5ncccc45)c3C(F)(F)F)cc2Cl)n1` [Cpd 256, methyl 2-(2-chloro-4-(1-(quinolin-5-yl)-5-(trifluoromethyl)-1H-pyrazole-4-carboxamido)phenyl)-2H-1,2,3-triazole-4-carboxylate], in that order: 240 nM, 240 nM and 257 nM.
Consider `Cn1ncc2ccnc(-n3ncc(C(=O)Nc4cnc(-n5nccn5)c(C#N)c4)c3C(F)(F)F)c21` [Cpd 259, N-(5-cyano-6-(2H-1,2,3-triazol-2-yl)pyridin-3-yl)-1-(1-methyl-1H-pyrazolo[3,4-c]pyridin-7-yl)-5-(trifluoromethyl)-1H-pyrazole-4-carboxamide], for which the IC50 was 151 nM in assay [1], 219 nM in assay [2] and 145 nM in assay [3].
For `N#Cc1cc(NC(=O)c2cnn(-c3ccnc4cn[nH]c34)c2C(F)(F)F)cnc1-n1nccn1` [Cpd 262, N-(5-cyano-6-(2H-1,2,3-triazol-2-yl)pyridin-3-yl)-1-(1H-pyrazolo[4,3-b]pyridin-7-yl)-5-(trifluoromethyl)-1H-pyrazole-4-carboxamide], in that order: 129 nM, 191 nM and 182 nM.
